In brackets after ≈: the same amount, converted by molar mass. Where two headings read alike, the source gives them in different places.
Legend:
S. aureus NRS100 (Mec^R) = test: MIC against S. aureus NRS100 (Table 14); format: cell-based, Staphylococcus aureus; conditions: compounds dissolved in DMSO or 1% sodium carbonate
Method: The recited compounds were dissolved in DMSO or in 1% sodium carbonate and transferred into micro titer plate to final concentration of 1000 μg/mL.

S. aureus NRS11 (Mec^S) = test: MIC against S. aureus NRS11 (Table 13); format: cell-based, Staphylococcus aureus; conditions: compounds dissolved in DMSO or 1% sodium carbonate
Method: All recited compounds were dissolved in DMSO or in 1% sodium carbonate and transferred to micro titer plates to final concentrations of 1000 μg/mL.

[1] = target: TEM-1 (class A β-lactamase) (Escherichia coli, UniProt P62593); test: β-Lactamase assay (nitrocefin colour change), TEM-1; format: biochemical; conditions: Table 10; class symbols x/xx/xxx, key not given
Method: (§1) β-Lactamase Assays (TEM-1, P99, and OXA-10): The activity of the compounds of the invention (inhibitors) toward β-lactamases was evaluated using 96 well plates. The reaction mixture included 10 mM sodium phosphate, pH 7.0, 150 mM sodium chloride, 0.01% Triton X-100, 100 μM nitrocefin, 10 nM of β-lactamases (class A: TEM-1; class C: P99, or class D: OXA-10), and variable concentrations of the inhibitors in a total volume of 100 μL. β-Lactamases were pre-incubated with the compounds at room temperature for 5 minutes, and the assay was initiated by the addition of nitrocefin. The inhibition of the enzyme activity by the compounds was determined by monitoring color change (from yellow to red) of nitrocefin after 20 minutes. Stock solutions of the compounds were prepared in dimethyl sulfoxide (DMSO). No more than 5% DMSO was present in assays, unless noted otherwise. B1aR Assay: The surface domain of B1aR (1 μM) was added to each inhibitor (at various concentrations) in 100 mM sodium phosphate, 50 mM sodium bicarbonate, at pH 7.0. The reaction mixtures were incubated at room temperature for 20 minutes. BOCILLIN FL, a fluorogenic ligand, was added to a concentration of 20 μM in a final volume of 20 μL. The mixtures were incubated at 37° C. for 5 minutes, at which point the reactions were quenched by the addition of 15 μL of the SDS sample buffer (125 mM Tris, 4% SDS, 20% glycerol, 2% 2-mercaptoethanol, pH 6.8), and were boiled for 4 minutes. The samples were loaded onto 15% SDS-PAGE, the gel was developed and scanned using a Storm 840® Fluorimager. The fluorescent bands of BOCILLIN FL-labeled B1aR^S were analyzed by Image Quant 5.2 software. PBP2 Assay: The PBP2 assay was performed according to the methods of Villegas-Esterada et al. (J. Am. Chem. Soc. 2008, 130, 9212-9213).

[2] = target: P99 (class C β-lactamase) (Enterobacter cloacae, UniProt P05364); test: β-Lactamase assay (nitrocefin colour change), P99; format: biochemical; conditions: Table 10; class symbols x/xx/xxx, key not given
Method: as §1

[3] = target: OXA-10 (class D β-lactamase) (Pseudomonas aeruginosa, UniProt P14489); test: β-Lactamase assay (nitrocefin colour change), OXA-10; format: biochemical; conditions: Table 10; class symbols x/xx/xxx, key not given
Method: as §1

[4] = Staphylococcus aureus, read-out: MIC

Sequence of OXA-10 (class D β-lactamase) (P14489 20-266, species assumed): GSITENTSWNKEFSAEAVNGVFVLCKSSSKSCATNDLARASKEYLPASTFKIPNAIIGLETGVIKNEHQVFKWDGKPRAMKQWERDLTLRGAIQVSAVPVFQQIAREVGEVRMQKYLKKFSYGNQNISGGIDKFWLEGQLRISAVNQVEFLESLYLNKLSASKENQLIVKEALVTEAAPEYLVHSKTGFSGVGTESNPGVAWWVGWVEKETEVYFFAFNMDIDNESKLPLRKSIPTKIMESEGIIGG
Sequence of TEM-1 (class A β-lactamase) (P62593 24-286 limits assumed): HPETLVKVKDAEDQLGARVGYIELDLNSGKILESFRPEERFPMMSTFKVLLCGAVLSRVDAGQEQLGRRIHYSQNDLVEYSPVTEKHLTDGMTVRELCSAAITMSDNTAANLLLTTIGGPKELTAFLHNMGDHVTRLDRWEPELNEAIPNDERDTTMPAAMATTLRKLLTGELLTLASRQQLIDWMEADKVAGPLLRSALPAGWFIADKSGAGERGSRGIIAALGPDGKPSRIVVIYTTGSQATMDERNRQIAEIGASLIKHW
Sequence of P99 (class C β-lactamase) (P05364 21-381): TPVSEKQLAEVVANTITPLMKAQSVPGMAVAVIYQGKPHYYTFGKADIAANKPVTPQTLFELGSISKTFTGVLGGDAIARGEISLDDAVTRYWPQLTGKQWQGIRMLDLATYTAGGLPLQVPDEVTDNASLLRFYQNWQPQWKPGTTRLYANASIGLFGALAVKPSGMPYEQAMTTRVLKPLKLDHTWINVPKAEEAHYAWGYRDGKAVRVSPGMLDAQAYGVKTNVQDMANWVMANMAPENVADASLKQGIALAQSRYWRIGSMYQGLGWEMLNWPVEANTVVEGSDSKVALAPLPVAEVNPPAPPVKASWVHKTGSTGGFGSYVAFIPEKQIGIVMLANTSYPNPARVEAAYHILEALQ

## CCCCOC(=O)c1ccc(NC(=O)Nc2ccccc2C(=O)O)cc1 [Compound 325]
S. aureus NRS100 (Mec^R)
  MIC: 256 µg/mL (≈ 718 µM)
S. aureus NRS11 (Mec^S)
  MIC: 256 µg/mL (≈ 718 µM)

## CC(Oc1ccc(NC(=O)c2c(C(=O)O)cccc2[N+](=O)[O-])cc1Cl)c1ccccc1 (stereo not drawn) [Compound 391]
S. aureus NRS100 (Mec^R)
  MIC: 500 µg/mL (≈ 1130 µM)
S. aureus NRS11 (Mec^S)
  MIC: 500 µg/mL (≈ 1130 µM)

## O=C1C2=C(SCCS2)C(=O)N1C(CO)[C@H](O)c1ccccc1 (stereo partly drawn) [Compound 138]
[1]
  TEM-1: xxx
[2]
  P99: xxx

## O=C(O)c1cccc([N+](=O)[O-])c1C(=O)Nc1ccc(OCc2ccccc2)nc1 [Compound 392]
S. aureus NRS100 (Mec^R)
  MIC: 500 µg/mL (≈ 1270 µM)
S. aureus NRS11 (Mec^S)
  MIC: 500 µg/mL (≈ 1270 µM)

## O=C(O)c1c(F)c(F)c(F)c(F)c1C(=O)Nc1ccc(OCc2cccc(C(F)(F)F)c2)c(Cl)c1 [Compound 388]
[1]
  TEM-1: xx
S. aureus NRS100 (Mec^R); [4]
  MIC: 128 µg/mL (≈ 245 µM)
[3]
  OXA-10: xx
S. aureus NRS11 (Mec^S); [4]
  MIC: 128 µg/mL (≈ 245 µM)

## O=C(O)c1c(Br)c(Br)c(Br)c(Br)c1C(=O)Nc1ccc(Cl)c(C(F)(F)F)c1 [Compound 89]
[1]
  TEM-1: xx
[3]
  OXA-10: xxx
[2]
  P99: xxx

## CCCCOC(=O)c1ccc(NC(=O)c2ccccc2C(=O)O)cc1 [Compound 331]
S. aureus NRS100 (Mec^R); [4]
  MIC: 2000 µg/mL (≈ 5860 µM)
S. aureus NRS11 (Mec^S); [4]
  MIC: 2000 µg/mL (≈ 5860 µM)

## O=C(O)c1cccc([N+](=O)[O-])c1C(=O)Nc1ccc(OCc2cccc(OC(F)(F)F)c2)c(Cl)c1 [Compound 421]
S. aureus NRS100 (Mec^R); [4]
  MIC: 250 µg/mL (≈ 489 µM)

## O=C1c2c(Br)c(Br)c(Br)c(Br)c2C(=O)N1c1ccc(OCc2ccccc2)c(Cl)c1 [Compound 227]
[1]
  TEM-1: xxx
[3]
  OXA-10: xxx

## NC(=O)C1=C(C(=O)O)SCCS1 [Compound 120]
[3]
  OXA-10: xx

## O=C(Nc1ccc(Cl)c(C(F)(F)F)c1)c1cccc([N+](=O)[O-])c1C(=O)O [Compound 86]
[1]
  TEM-1: xx

## O=C(O)c1cccnc1C(=O)Nc1ccc(OCc2cccc(OC(F)(F)F)c2)c(Cl)c1 [Compound 423]
S. aureus NRS100 (Mec^R); [4]
  MIC: 250 µg/mL (≈ 536 µM)

## CCCCCCCCOc1ccc(NC(=O)c2c(F)c(F)c(F)c(F)c2C(=O)O)cn1 [Compound 344]
S. aureus NRS100 (Mec^R); [4]
  MIC: 256 µg/mL (≈ 579 µM)
S. aureus NRS11 (Mec^S); [4]
  MIC: 256 µg/mL (≈ 579 µM)

## N#Cc1cccc(NC(=O)c2c(Br)c(Br)c(Br)c(Br)c2C(=O)[O-])c1.[Na+] [Compound 201]
[1]
  TEM-1: xx
[3]
  OXA-10: xx
[2]
  P99: xxx

## CCCCCCCCOc1ccc(NC(=O)c2ccccc2C(=O)O)cn1 [Compound 343]
S. aureus NRS100 (Mec^R); [4]
  MIC: 256 µg/mL (≈ 691 µM)
S. aureus NRS11 (Mec^S); [4]
  MIC: 256 µg/mL (≈ 691 µM)

## Cc1ccccc1COc1ccc(NC(=O)c2ccccc2C(=O)O)cc1Cl [Compound 383]
S. aureus NRS100 (Mec^R)
  MIC: 128 µg/mL (≈ 323 µM)
S. aureus NRS11 (Mec^S)
  MIC: 128 µg/mL (≈ 323 µM)

## CCCCOC(=O)c1ccc(NC(=O)C2CCC(C)CC2C(=O)O)cc1 (stereo not drawn) [Compound 337]
S. aureus NRS100 (Mec^R)
  MIC: 2,000 μg/mL
S. aureus NRS11 (Mec^S)
  MIC: 2,000 μg/mL

## CCCCCCCCOc1ccc(N)cc1Cl [Compound 299]
S. aureus NRS100 (Mec^R); [4]
  MIC: 16 µg/mL (≈ 62.6 µM)

## CCCCCCCCOc1ccc(N(C)C(=O)c2c(Cl)c(Cl)c(Cl)c(Cl)c2C(=O)OC)cc1 [Compound 282]
[3]
  OXA-10: xxx

## O=C(O)c1ccncc1C(=O)Nc1ccc(OCc2cccc(OC(F)(F)F)c2)c(Cl)c1 [Compound 424]
S. aureus NRS100 (Mec^R); [4]
  MIC: > 250 µg/mL

## CC(=O)OCC1=C(C(=O)O)N2C(=O)C(N3C(=O)C4=C(SCCS4)C3=O)C2SC1 (stereo not drawn) [Compound 118]
[2]
  P99: xxx

## O=C(O)c1c(Cl)c(Cl)c(Cl)c(Cl)c1C(=O)Nc1ccc(CO)cc1 [Compound 254]
[3]
  OXA-10: xx

## CC(C)C[C@@H](C(=O)O)C(C(=O)O)C(=O)OC(C)(C)C (stereo partly drawn) [Compound 330]
S. aureus NRS100 (Mec^R)
  MIC: 2,000 μg/mL
S. aureus NRS11 (Mec^S)
  MIC: 2,000 μg/mL

## CCCCCCCCOc1ccc(NC(=O)c2c(Cl)c(Cl)c(Cl)c(Cl)c2C(=O)O)c[n+]1[O-] [Compound 358]
[3]
  OXA-10: xxx

Reference: patent US8859620B2, “Phthalanilate compounds and methods of use” (University of Notre Dame du Lac, priority 2009, dated 2014)
